# Reference: US8058444B2, “Heterocycle-substituted pyridine derivative's salt or crystal thereof” (Eisai R&D Management Co., Ltd., priority 2007, dated 2011)
# Counter-ions that a name gives are not always drawn.
# System: C. albicans E81022 strain
# Assay: Experimental systemic candidal infection model in mice
# Type: in vivo
# Conditions: peroral (into the stomach), female ICR mice infected i.v. with C. albicans E81022, observed until 14 days after infection
# Method: 1. Experimental Systemic Candidal Infection Model in Mice
# A standing culture of C. albicans E81022 strain was carried out for 48 hours at 30° C in sabouraud dextrose agar medium (SDA), the recovered fungal cells were suspended in sterilized physiological saline. By counting the fungal number on cytometry plate, the suspension was diluted to 2×10^7 cells/mL with sterilized physiological saline to serve fungal inoculum.
# The fungal inoculum was used in the amounts of 0.2 mL to inoculate 4.5 to 5.5 week-old female ICR mice in the tail vein (4×10^6 cells/mouse).
# From 0.5 and 1 hours after fungal inoculation, 0.2 mL of agent solution (compound of Reference Example 1 dissolved to 5 mg/ml in 50 mM hydrochloric acid, diluted suitably in sterile water, and then, diluted 10-fold in 5% fructose solution) was administered into the stomach using a peroral probe twice every 6 hours. […]
# The protective effect was determined by observing lifeldeath until 14 days after infection and calculating the mean survival days.
compound,measurement,setting,value
"Nc1ncccc1-c1cc(Cc2ccc(COc3ccccn3)cc2)no1 [Hydrochloride of Reference Example 1, 3-(3-(4-(Pyridin-2-yloxymethyl)-benzyl)-isoxazol-5-yl)-pyridin-2-yl amine]",Mean Survival Days,2.5 mg/kg,11.0 days
same,Mean Survival Days,5 mg/kg,13.4 days
